From patent US6638923B2, “Estra-1,3,5(10),16-tetraene derivatives” (Kyowa Hakko Kogyo Co., Ltd., priority 1999, dated 2003)

Molecular target: T1, recombinant human estrone sulfatase (Homo sapiens, UniProt P08842)
T1 construct: made in house; host or cells: CHO (Chinese hamster ovary) cells
T1 sequence (P08842 22-583): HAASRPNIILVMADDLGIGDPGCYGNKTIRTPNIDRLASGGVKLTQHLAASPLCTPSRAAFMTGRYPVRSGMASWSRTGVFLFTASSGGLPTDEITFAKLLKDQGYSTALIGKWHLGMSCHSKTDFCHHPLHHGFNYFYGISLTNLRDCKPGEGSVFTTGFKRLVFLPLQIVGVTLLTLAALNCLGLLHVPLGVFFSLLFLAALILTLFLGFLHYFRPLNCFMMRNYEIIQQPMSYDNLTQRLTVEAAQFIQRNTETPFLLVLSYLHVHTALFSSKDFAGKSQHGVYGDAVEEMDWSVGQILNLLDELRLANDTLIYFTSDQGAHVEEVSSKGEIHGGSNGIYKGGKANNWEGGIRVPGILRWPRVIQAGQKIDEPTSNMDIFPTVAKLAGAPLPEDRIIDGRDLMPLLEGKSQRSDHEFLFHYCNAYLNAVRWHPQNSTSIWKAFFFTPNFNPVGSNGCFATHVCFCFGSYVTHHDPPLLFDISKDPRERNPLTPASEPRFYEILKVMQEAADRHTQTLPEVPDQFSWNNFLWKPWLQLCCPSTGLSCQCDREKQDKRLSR
Experiment: Estrone sulfatase (steroid sulfatase) inhibition test
Format: biochemical
Details: test compound 1 μM; [6,7-3H] estrone sulfate 3.3 nmol/L; pH 7; 1 hour at 37° C.; read-out: Inhibitory activity against estrone sulfatase, Inhibition % (1 μM)
Experimental: Estrone Sulfatase (Steroid Sulfatase) Inhibition Test:
[6,7-^3H] Estrone sulfate (final concentration, 3.3 nmol/L; 300,000 dpm/tube), recombinant human estrone sulfatase (33 ng/tube) and an estra-1,3,5(10),16-tetraene derivative (final concentration, 1 μmol/L) were added to a phosphate buffer (pH 7; final volume, 0.15 mL) containing 0.25 mol/L of sucrose and 0.04 mol/L of nicotinamide, and allowed to enzymatically react for 1 hour at 37° C. The recombinant human estrone sulfatase was obtained by transforming a human estrone sulfatase gene into CHO (Chinese hamster ovary) cells and expressing it in the cells, and used after partial purification. After completion of the enzyme reaction, the reaction solution was mixed with toluene (0.5 mL), followed by stirring, and the mixture was centrifuged for 5 minutes at 9,000 rpm. Thereafter, the toluene extraction layer was separated and the radioactivity of the resulting [^3H]-estrone was measured with a liquid scintillation counter. The measurement was carried out by duplication, and the fluctuation within the assay was 10% or less. An enzyme reaction in the absence of the test compound was carried out at the same time. The activity of the test compound to inhibit estrone sulfatase was calculated by the following formula.
Inhibitory activity against estrone sulfatase (%)=100−(100×(A/B)) […]

Compound: C[C@]12CC[C@@H]3c4ccc(O)cc4CC[C@H]3[C@@H]1CC=C2C(=O)O [Compound 1, 3-hydroxyestra-1,3,5(10), 16-tetraene-17-carboxylic acid]
- inhibition at 1 µM: 48%
